Results taken from ChEMBL document CHEMBL1155676, “Isolation and biochemical characterization of a new topoisomerase I inhibitor from Ocotea leucoxylon” (J Nat Prod, 2000).
Blank lines part the entries; values can stand above or below the molecule they belong to. Calls of active or inactive are those of the source. The calls are words filed in the database; no cut-off is given here.

Tests used:
B16-F10 = assay: Cytotoxicity against mouse B16F10 cells upto 30 uM; assay type: functional, cell-based
P388 [1] = assay: Cytotoxicity against mouse P388 cells by soft-agar colony-formation assay; assay type: functional, cell-based
Saccharomyces cerevisiae [2] = assay: Growth inhibition of Saccharomyces cerevisiae RS322 after 48 hrs by XTT assay; assay type: functional
COLO 205 = assay: Cytotoxicity against human COLO205 cells upto 30 uM; assay type: functional, cell-based
[3] = biological target: T1, DNA topoisomerase 1 (Homo sapiens) (UniProt P11387); assay: Induction of human recombinant topoisomerase 1-mediated pBR322 plasmid DNA cleavage assessed as increase in nicked form 2 at 100 uM after 60 mins
T1 sequence (whole entry): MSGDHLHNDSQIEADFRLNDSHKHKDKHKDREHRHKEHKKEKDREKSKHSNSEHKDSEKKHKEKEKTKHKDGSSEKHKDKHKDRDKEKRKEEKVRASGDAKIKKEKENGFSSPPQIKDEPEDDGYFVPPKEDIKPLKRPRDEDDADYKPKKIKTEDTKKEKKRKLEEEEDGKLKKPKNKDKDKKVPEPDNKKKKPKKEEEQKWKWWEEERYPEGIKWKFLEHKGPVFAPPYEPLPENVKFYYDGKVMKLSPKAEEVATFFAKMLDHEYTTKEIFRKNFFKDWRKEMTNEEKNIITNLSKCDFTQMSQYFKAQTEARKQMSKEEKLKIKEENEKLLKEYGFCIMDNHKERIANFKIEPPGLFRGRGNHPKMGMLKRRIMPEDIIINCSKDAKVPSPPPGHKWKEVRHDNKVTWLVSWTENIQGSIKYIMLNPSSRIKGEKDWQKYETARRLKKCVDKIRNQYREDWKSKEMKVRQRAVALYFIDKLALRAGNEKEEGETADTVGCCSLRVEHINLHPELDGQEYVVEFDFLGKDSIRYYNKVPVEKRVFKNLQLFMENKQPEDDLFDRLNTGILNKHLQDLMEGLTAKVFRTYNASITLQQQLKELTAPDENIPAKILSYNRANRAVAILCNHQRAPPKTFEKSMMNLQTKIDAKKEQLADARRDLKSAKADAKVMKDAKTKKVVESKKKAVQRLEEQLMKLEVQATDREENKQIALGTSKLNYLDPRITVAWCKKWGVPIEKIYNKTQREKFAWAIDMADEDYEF

Mus musculus = organism: Mus musculus; assay: Cytotoxicity against mouse lung carcinoma cells upto 30 uM; assay type: functional, cell-based
[4] = biological target: T1, DNA topoisomerase 1 (Homo sapiens); assay: Inhibition of human recombinant DNA topoisomerase 1-mediated pBR322 DNA relaxation activity at 20 to 200 uM after 30 mins by gel electrophoresis
P388 [5] = assay: Cytotoxicity against camptothecin-resistant mouse P388 cells by soft-agar colony-formation assay; assay type: functional, cell-based
Saccharomyces cerevisiae [6] = assay: Growth inhibition of Saccharomyces cerevisiae RJ03 after 48 hrs by XTT assay; assay type: functional
Saccharomyces cerevisiae [7] = assay: Growth inhibition of Saccharomyces cerevisiae RS321 after 48 hrs by XTT assay; assay type: functional
Bos taurus = organism: Bos taurus; assay: Inhibition of calf thymus DNA topoisomerase 1-mediated supercoiled pSP64 plasmid DNA relaxation at 20 uM

- Activity [3]: 29%
- Activity [4]: inactive
SMILES: COc1cc2c(cc1OC)-c1c3c(cc4ccnc(c14)C2=O)OCO3 [DICENTRINONE]
- Activity (B16-F10): Not toxic
- IC50 (P388 [1]): 100 µM
- IC12 (Saccharomyces cerevisiae [2]): 49 µg/mL
- Activity (COLO 205): Not toxic
- Activity (Mus musculus): Not toxic
- IC50 (P388 [5]): 100 µM
- IC12 (Saccharomyces cerevisiae [6]): > 2000 µg/mL
- IC12 (Saccharomyces cerevisiae [7]): > 2000 µg/mL

- Activity (Bos taurus): Active
SMILES: COc1cc2c[n+](C)c3c4cc5c(cc4ccc3c2cc1OC)OCO5

SMILES: COc1cc2c(cc1OC)-c1c3c(cc4c1[C@H](C2)N(C)CC4)OCO3
- Activity (Saccharomyces cerevisiae [2]): inactive
- Activity (Saccharomyces cerevisiae [6]): inactive
- Activity (Saccharomyces cerevisiae [7]): inactive
